For one series, the system named is PAC1 receptor. More on the design: method as in 2 sources, one per row (each row's own in cited_ref): ref Yu et al. [2014] ||| ref Vaudry et al. [2009]. The conditions noted are these: vs VIP, ref Yu et al. [2014], cited from earlier work. The text has this:
The retinoprotective effects of PACAP are well-documented and have been proven in different injury models, such as excitotoxic, ischemic, UV light-induced, traumatic, diabetic and oxygen-induced injuries (Atlasz et al. [2008], [2011], [2016]; Kvarik et al. [2016]; Shioda et al. [2016]; Szabadfi et al. [2016]; Vaczy et al. [2016]). […] P ...

A further series addresses T1, PAC1-R (Homo sapiens, UniProt P41586).
T1 construct: expressed in transfected cells; host or cells: PAC1-CHO cells (CHO cells expressing PAC1-R); That they are transfected is inferred from the cell line's name
T1 sequence (P41586 21-468): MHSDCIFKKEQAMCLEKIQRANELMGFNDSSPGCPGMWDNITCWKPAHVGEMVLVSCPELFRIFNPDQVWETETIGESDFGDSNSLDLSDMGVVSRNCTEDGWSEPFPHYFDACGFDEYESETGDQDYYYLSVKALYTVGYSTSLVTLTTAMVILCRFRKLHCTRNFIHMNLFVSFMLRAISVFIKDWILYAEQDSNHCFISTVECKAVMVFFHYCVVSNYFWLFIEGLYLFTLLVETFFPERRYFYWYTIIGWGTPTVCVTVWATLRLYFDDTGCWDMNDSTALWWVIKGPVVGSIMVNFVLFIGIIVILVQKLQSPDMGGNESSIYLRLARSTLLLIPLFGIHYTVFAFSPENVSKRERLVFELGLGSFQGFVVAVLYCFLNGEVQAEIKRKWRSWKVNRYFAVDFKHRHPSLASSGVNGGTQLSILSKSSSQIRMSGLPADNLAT
Nature of the series: cAMP accumulation assay in PAC1-CHO cells. The series is classed as cell-based. As for the experimental part:
PAC1-CHO cells cultured in Dulbecco’s Modified Eagle’s Medium (DMEM) at 37 °C were scraped off the surface with rubber policeman, washed twice with PBS and the density of the cells was adjusted to 2 × 10^6 /mL. Peptides were added to 500 uL cells suspension with the corresponding varying working concentrations of the detected factor. After incubation at 37 °C for 5-10 min cells were harvested and the lysates were subjected to cAMP quantification using the enzyme immunoassay kit for cAMP (Biyuntian, Shanghai, China), following the manufacturer’s instructions. Protein concentration of each sample was determined using BCA assay, and the cAMP level of each sample was calculated following the formula: cAMP level (pmol/mg protein) = cAMP concentration (pmol/mL)/protein concentration (mg/mL). The cAMP level in each sample was plotted as the percentage (%) of the maximal cAMP level in cells treated with PACAP27 versus the logarithmic value of the peptide concentrations. All experiments were run with at least four parallel samples and were repeated three times.
The data are means ± SEM of four experiments

For series [1], the system named is retina (BCCAO-induced retinopathy). Kind of series: Retinal layer thickness / morphology after bilateral carotid artery occlusion (BCCAO), eye drops. In kind it is in vivo, rat (male). The conditions noted are these: for Retinoprotective efficacy of eye drops, overall / compared with untagged peptide: topical eye drops in SOCB. As for the experimental part: Adult male rat litters were housed in the animal facility in individual cages in a 12 h light-dark cycle with food and water ad libitum. Animal housing, care and application of experimental procedures were in accordance with institutional guidelines under approved protocols (No: BA02/2000–26/2017, University of Pecs). Under isoflurane anesthesia, common carotid arteries were exposed on both sides through a midline incision and then ligated with a 3–0 filament. A group of animals (sham group) underwent all steps of the operating procedure except ligation of the carotid arteries. Immediately following the operation, the right eye of the animals was treated with derivatives of PACAP (PACAP-TAT /n = 17/ or VIP-TAT /n = 17/) eye drops (1 μg/drop). Dose and schedule of the eye drop treatments were based on our previous experiments (Werling et al. [2016]). In the experiment for histological analysis, the different derivatives were dissolved in benzalkonium solution for ophthalmic use (solutio ophthalmica cum benzalkonio (SOCB)). The left eye, serving as a control, was treated with vehicle containing neither PACAP-TAT nor VIP-TAT. Animals were treated for five consecutive days, twice a day with one drop of drug, under brief isoflurane anesthesia (max. 5 min).
Fourteen days after the operation, rats (n = 10 SHAM and n = 24 BCCAO) were killed with anesthetic and the eyes were processed for histology. The eyes were removed and the retinas were solved in phosphate buffered saline (PBS), fixed in 4% paraformaldehyde dissolved in 0.1 M phosphate buffer (PB) (Sigma, Budapest, Hungary) and embedded in Durcupan ACM resin (Sigma, Budapest, Hungary). Retinas were cut at 2 μm and stained with toluidine blue dye (Sigma, Hungary). Sections were mounted in DPX medium (Sigma, Hungary) and photographs were taken with a digital CCD camera using the Spot program. Central retinal areas within 1 mm from the optic nerve were used (n = 5 measurements from one tissue block). The following parameters were measured: (i) cross-section of the retina from the outer limiting membrane (OLM) to the inner limiting membrane (ILM), (ii) the width of individual retinal layers (outer nuclear layer [ONL], outer plexiform layer [OPL], inner nuclear layer [INL], inner plexiform layer [IPL]), (iii) the number of cells/100 μm section length in the GCL, and the (iv) number of cells/[…]. Results are presented as mean ± SEM. Statistical comparisons were made using the two-way ANOVA test followed by Tukey’s post hoc analysis.
Fig. 4 Quantification of retinal layers in SHAM+SOCB, in SHAM+PACAP-TAT, in BCCAO+SOCB, and in BCCAO+PACAP-TAT animals; the right eye was treated with PACAP-TAT eye drops, the left eye served as controls receiving only SOCB. Comparison of all retinal layers (a–e). […] Statistical significance (*p < 0.05 vs. SHAM+SOCB retinas, #p < 0.05 vs. BCCAO+SOCB retinas) was calculated by two-way ANOVA followed by Fischer’s post hoc test
Fig. 6 Quantification of retinal layers in SHAM+SOCB, in SHAM+VIP-TAT, in BCCAO+SOCB, and in BCCAO+VIP-TAT animals; the right eye was treated with VIP-TAT eye drops, the left eye served as control receiving only SOCB. Comparison of all retinal layers (a–e). […] Statistical significance (*p < 0.05 vs. SHAM+SOCB retinas, #p < 0.05 vs. BCCAO+SOCB retinas) was calculated by two-way ANOVA followed by Fischer’s post hoc test

Results on one compound are retold here after publication PMC6581923 (Journal of Molecular Neuroscience, 2018).

“Also recorded” adds a separate entry of the source. Read-outs that look alike come from different tables or passages of the source.

With `CC[C@H](C)[C@H](NC(=O)[C@H](CO)NC(=O)[C@H](CC(N)=O)NC(=O)[C@H](CC(C)C)NC(=O)[C@H](Cc1ccc(O)cc1)NC(=O)[C@H](CCCCN)NC(=O)[C@H](CCCCN)NC(=O)[C@@H](NC(=O)[C@H](C)NC(=O)[C@H](CCSC)NC(=O)[C@H](CCC(N)=O)NC(=O)[C@H](CCCCN)NC(=O)[C@H](CCCNC(=N)N)NC(=O)[C@H](CC(C)C)NC(=O)[C@H](CCCNC(=N)N)NC(=O)[C@@H](NC(=O)[C@H](Cc1ccc(O)cc1)NC(=O)[C@H](CC(N)=O)NC(=O)[C@H](CC(=O)O)NC(=O)[C@@H](NC(=O)[C@H](Cc1ccccc1)NC(=O)[C@@H](NC(=O)[C@H](C)NC(=O)[C@H](CC(=O)O)NC(=O)[C@H](CO)NC(=O)[C@@H](N)Cc1c[nH]cn1)C(C)C)[C@@H](C)O)[C@@H](C)O)C(C)C)C(=O)N[C@@H](CC(C)C)C(=O)N[C@@H](CC(N)=O)C(=O)NCC(=O)N[C@@H](CCCNC(=N)N)C(=O)N[C@@H](CCCCN)C(=O)N[C@@H](CCCCN)C(=O)N[C@@H](CCCNC(=N)N)C(=O)N[C@@H](CCCNC(=N)N)C(=O)N[C@@H](CCC(N)=O)C(=O)N[C@@H](CCCNC(=N)N)C(=O)N[C@@H](CCCNC(=N)N)C(=O)N[C@@H](CCCNC(=N)N)C(=O)N1CCC[C@H]1C(=O)N[C@@H](CCC(N)=O)C(=O)O` [VIP-TAT], the results for the “Activity on / affinity for PAC1 receptor relative to VIP” value with PAC1 receptor and in the series with PAC1 receptor (listed as VIP bound to TAT peptide) were “higher activity on the activation of PACAP preferring PAC1receptor than VIP” and “higher affinity for PAC1-R”, respectively. In addition, the “EC50 as fraction of the EC50 of VIP” value on PAC1-R (VIP-TAT vs VIP) is “about 1/200”. Further, at PAC1-R (tagged vs untagged peptide), the “Effect of TAT-tagging on activation of PAC1-R (cAMP), in words” value is “enhanced the activity of VIP on the activation of PAC1-R”. Moreover, the “OPL preservation after BCCAO” value in series [1] (BCCAO + eye drops, OPL almost disappeared in several BCCAO-induced degenerated retinas) is “preserved”. In series [1] (BCCAO + eye drops, toluidine blue sections, 14 days, severe degeneration in BCCAO+SOCB), the “Retinal degeneration in light microphotographs after BCCAO” value was “only mild degeneration”. The “Retinoprotective efficacy of eye drops, overall / compared with untagged peptide” value in series [1] (BCCAO) was “attenuate ischemic retinal degeneration via the PAC1 receptor”; in series [1] (BCCAO, listed as TAT-bound VIP), “a similar degree of protection”; in series [1] (BCCAO, listed as VIP bound to TAT peptide), “could effectively traverse the ocular barriers and exert a neuroprotective effect in the retina; also recorded: much stronger retinoprotective effects when bound to TAT”. Besides, in series [1] (BCCAO, eye drops 1 μg/drop, twice a day, five consecutive days, in SOCB, right eye, left eye SOCB control, 14 days, p < 0.05 vs. BCCAO+SOCB), the “Retinal layer thickness (OLM-ILM, ONL, OPL, INL, IPL) after BCCAO” value is “significant amelioration in all retinal layers; also recorded: improved the structure of all the retinal layers”. In addition, the “Change of retinal thickness in sham animals” value in series [1] (eye drops alone in sham animals, 1 μg/drop, twice a day, five consecutive days, in SOCB, histology 14 days after operation) is on record as “did not cause any changes in the retinal thickness”.
